{
  "source": "patent US8603498B2",
  "about": "“Lipo-phosphated or lipo-sulphated compound, compositions comprising it and topical uses thereof” (Sederma, S.A.S., priority 2010, dated 2013)",
  "test_system": "collagen I",
  "test": "Synthesis of collagen I on human dermal fibroblast (immunolabeling)",
  "assay_type": "cell-based",
  "settings": "10^−6%, positive control",
  "experimental": "Normal human fibroblasts (NHF) are cultivated in MW24 plates for 24 hours. The cells are contacted or not with the Lipo-Phosphomalate of the invention at various concentrations for 7 days. The synthesis of collagen I produced by the cells is then quantified by immunolabeling fixed on the layers using a specific antibody. Quantification by image analysis is then performed on the photos. TGF-β1 is used as positive control.\nAn analysis of variance was performed on the data (cases treated compared with untreated cases). In the case of identity of variances, a Student't test was then performed on the means.",
  "data": [
    {"substance": "TGF- β1: positive control for laminin and collagen I synthesis", "values": [
      {"measurement": "collagen I % Variation/control", "value": "+1374%;"},
      {"measurement": "collagen I AFU mean", "value": "55 +/− 17.6 AFU"}
    ]}
  ]
}
